Measured values: patent publication US10925283B2, “Microbiocidal phenylamidine derivatives” (SYNGENTA PARTICIPATIONS AG, priority 2016, dated 2021)

Legend:
[1] = tested on: Puccinia recondita f. sp. tritici; assay: Puccinia recondita f. sp. tritici / wheat / leaf disc preventative (brown rust); type: in vivo; conditions: foliar, wheat leaf segments cv. Kanzler, inoculated 1 day after application, assessed 7-9 days after application, read-out: control of Puccinia recondita f. sp. tritici (percent disease control compared to untreated)
In short: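 Leaf segments of wheat cv. Kanzler on agar were sprayed with diluted formulated compound and inoculated with spores 1 day later. Kept at 19° C, 75% rh, 12 h light/12 h dark. Percent disease control versus untreated assessed 7-9 days after application.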

[2] = tested on: Puccinia recondita f. sp. tritici; assay: Puccinia recondita f. sp. tritici / wheat / leaf disc curative (brown rust); type: in vivo; conditions: foliar, wheat leaf segments cv. Kanzler, compound applied 1 day after inoculation, assessed 6-8 days after application, read-out: control of Puccinia recondita f. sp. tritici (percent disease control compared to untreated)
In short: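 Curative test: leaf segments of wheat cv. Kanzler on agar were inoculated with spores and held dark at 19 °C, 75% rh; formulated compound in water was applied 1 day after inoculation. Segments were then kept at 19 °C, 75% rh under 12 h light/12 h dark, and percent disease control versus untreated was scored 6-8 days after application.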

[3] = tested on: Blumeria graminis f. sp. tritici (Erysiphe graminis f. sp. tritici); assay: Blumeria graminis f. sp. tritici / wheat / leaf disc preventative (powdery mildew on wheat); type: in vivo; conditions: foliar, wheat leaf segments cv. Kanzler, inoculated 1 day after application, assessed 6-8 days after application, read-out: control of Blumeria graminis f. sp. tritici (percent disease control compared to untreated)
In short: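 Wheat cv. Kanzler leaf segments on agar were sprayed with formulated compound in water, then inoculated with powdery mildew 1 day after application. Incubation was at 20° C, 60% rh, 24 h dark then 12 h light/12 h dark. Percent disease control versus untreated was scored 6-8 days after application.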

Phakopsora pachyrhizi = Phakopsora pachyrhizi / soybean / preventative (soybean rust); type: in vivo; conditions: foliar, soybean leaf disks, inoculated one day after application, assessed 12-14 days after application, read-out: control of Phakopsora pachyrhizi (percent disease control compared to untreated)
Procedure: Phakopsora pachyrhizi/Soybean/Preventative (Soybean Rust) Soybean leaf disks are placed on water agar in multiwell plates (24-well format) and sprayed with the formulated test compound diluted in water. One day after application leaf discs are inoculated by spraying a spore suspension on the lower leaf surface. After an incubation period in a climate cabinet of 24-36 hours in darkness at 20° C. and 75% rh leaf disc are kept at 20° C. with 12 h light/day and 75% rh. The activity of a compound is assessed as percent disease control compared to untreated when an appropriate level of disease damage appears in untreated check leaf disks (12-14 days after application).

| melting point [°C] | SMILES | pest or weed control at 200 ppm [1] [%] | pest or weed control at 200 ppm [2] [%] | pest or weed control at 200 ppm [3] [%] | pest or weed control at 200 ppm (Phakopsora pachyrhizi) [%] |
| --- | --- | --- | --- | --- | --- |
| 103 to 105 | CCN(C)/C=N/c1cc(OC)c(C(O)(CS(=O)(=O)c2ccccc2)C(F)(F)F)cc1C (centres unmarked) [E.065, N′-[4-[1-(benzenesulfonylmethyl)-2,2,2-trifluoro-1-hydroxy-ethyl]-5-methoxy-2-methyl-phenyl]-N-ethyl-N-methyl-formamidine] | ≥ 80 | ≥ 80 | ≥ 80 | – |
| 115 to 116.6 | CCN(C)/C=N/c1cc(OC)c(C(O)(C2=COCCC2)C(F)(F)F)cc1C (centres unmarked) [E.074, N′-[4-[1-(3,4-dihydro-2H-pyran-5-yl)-2,2,2-trifluoro-1-hydroxy-ethyl]-5-methoxy-2-methyl-phenyl]-N-ethyl-N-methyl-formamidine] | ≥ 80 | ≥ 80 | ≥ 80 | – |
| 81 to 83 | CCSCC(O)(c1cc(C)c(/N=C/N(C)CC)cc1OC)C(F)(F)F (centres unmarked) [E.073, N-ethyl-N′-[4-[1-(ethylsulfanylmethyl)-2,2,2-trifluoro-1-hydroxy-ethyl]-5-methoxy-2-methyl-phenyl]-N-methyl-formamidine] | ≥ 80 | – | ≥ 80 | – |
| 105 to 107 | CCN(C)C=Nc1cc(OC)c(C(O)(C/C(=N/OC)c2ccccc2)C(F)(F)F)cc1C (centres unmarked) [E.059, N-ethyl-N′-[4-[(3Z)-1-hydroxy-3-methoxyimino-3-phenyl-1-(trifluoromethyl)propyl]-5-methoxy-2-methyl-phenyl]-N-methyl-formamidine] | ≥ 80 | ≥ 80 | ≥ 80 | ≥ 80 |
| 86 to 88 | CCN(C)/C=N/c1cc(OC)c(C(O)(CC#N)C(F)(F)F)cc1C (centres unmarked) [E.061, N′-[4-[1-(cyanomethyl)-2,2,2-trifluoro-1-hydroxy-ethyl]-5-methoxy-2-methyl-phenyl]-N-ethyl-N-methyl-formamidine] | ≥ 80 | ≥ 80 | ≥ 80 | – |
| 90 to 93 | CCN(C)/C=N/c1cc(OC)c(C(O)(C(F)(F)F)C(C)(C)C#N)cc1C (centres unmarked) [E.060, N′-[4-[2-cyano-1-hydroxy-2-methyl-1-(trifluoromethyl)propyl]-5-methoxy-2-methyl-phenyl]-N-ethyl-N-methyl-formamidine] | ≥ 80 | ≥ 80 | ≥ 80 | ≥ 80 |
| 56 to 58 | CCN(C)/C=N/c1cc(OC)c(C(O)(CS(=O)(=O)Cc2ccccc2)C(F)(F)F)cc1C (centres unmarked) [E.064, N′-[4-[1-(benzylsulfonylmethyl)-2,2,2-trifluoro-1-hydroxy-ethyl]-5-methoxy-2-methyl-phenyl]-N-ethyl-N-methyl-formamidine] | ≥ 80 | ≥ 80 | ≥ 80 | – |
| – | CCN(C)/C=N/c1cc(OC)c(C(O)(CCOc2ccccc2)C(F)(F)F)cc1C (centres unmarked) [E.054, N-ethyl-N′-[4-[1-hydroxy-3-phenoxy-1-(trifluoromethyl)propyl]-5-methoxy-2-methyl-phenyl]-N-methyl-formamidine] | ≥ 80 | ≥ 80 | ≥ 80 | ≥ 80 |
| – | CCN(C)/C=N/c1cc(OC)c(C(O)(COC2CC(C)CC(C)C2)C(F)(F)F)cc1C (centres unmarked) [E.006, N′-[4-[1-[(3,5-dimethylcyclohexoxy)methyl]-2,2,2-trifluoro-1-hydroxy-ethyl]-5-methoxy-2-methyl-phenyl]-N-ethyl-N-methyl-formamidine] | ≥ 80 | ≥ 80 | ≥ 80 | ≥ 80 |
| – | CCN(C)/C=N/c1cc(OC)c(C(O)(COCc2ccc(C)cc2)C(F)(F)F)cc1C (centres unmarked) [E.027, N-ethyl-N′-[5-methoxy-2-methyl-4-[2,2,2-trifluoro-1-hydroxy-1-(p-tolylmethoxymethyl)ethyl]phenyl]-N-methyl-formamidine] | ≥ 80 | ≥ 80 | ≥ 80 | ≥ 80 |
| – | CCN(C)/C=N/c1cc(OC)c(C(O)(C2CCC(OC)CC2)C(F)(F)F)cc1C (centres unmarked) [E.075, N-ethyl-N′-[5-methoxy-2-methyl-4-[2,2,2-trifluoro-1-hydroxy-1-(4-methoxycyclohexyl)ethyl]phenyl]-N-methyl-formamidine] | ≥ 80 | ≥ 80 | ≥ 80 | ≥ 80 |
| – | CCN(C)/C=N/c1cc(OC)c(C(O)(COCC(C)C)C(F)(F)F)cc1C (centres unmarked) [E.046, N-ethyl-N′-[5-methoxy-2-methyl-4-[2,2,2-trifluoro-1-hydroxy-1-(isobutoxymethyl)ethyl]phenyl]-N-methyl-formamidine] | ≥ 80 | ≥ 80 | ≥ 80 | ≥ 80 |
| – | CCN(C)/C=N/c1cc(OC)c(C(O)(CCOCc2ccccc2)C(F)(F)F)cc1C (centres unmarked) [E.051, N′-[4-[3-benzyloxy-1-hydroxy-1-(trifluoromethyl)propyl]-5-methoxy-2-methyl-phenyl]-N-ethyl-N-methyl-formamidine] | ≥ 80 | ≥ 80 | ≥ 80 | ≥ 80 |
| – | CCN(C)/C=N/c1cc(OC)c(C(O)(COC2CCCCC2)C(F)(F)F)cc1C (centres unmarked) [E.039, N′-[4-[1-(cyclohexoxymethyl)-2,2,2-trifluoro-1-hydroxy-ethyl]-5-methoxy-2-methyl-phenyl]-N-ethyl-N-methyl-formamidine] | ≥ 80 | ≥ 80 | ≥ 80 | ≥ 80 |
| – | CCCCOCC(O)(c1cc(C)c(/N=C/N(C)CC)cc1OC)C(F)(F)F (centres unmarked) [E.013, N′-[4-[1-(butoxymethyl)-2,2,2-trifluoro-1-hydroxy-ethyl]-5-methoxy-2-methyl-phenyl]-N-ethyl-N-methyl-formamidine] | ≥ 80 | ≥ 80 | ≥ 80 | ≥ 80 |
| – | CCN(C)/C=N/c1cc(OC)c(C(O)(CSCc2ccccc2)C(F)(F)F)cc1C (centres unmarked) [E.069, N′-[4-[1-(benzylsulfanylmethyl)-2,2,2-trifluoro-1-hydroxy-ethyl]-5-methoxy-2-methyl-phenyl]-N-ethyl-N-methyl-formamidine] | ≥ 80 | ≥ 80 | ≥ 80 | ≥ 80 |
